Measured values taken from US10227347B2, “Purinyl-N-hydroxyl pyrimidine formamide derivative, preparation methods and uses thereof” (Guizhou Bailing Group Pharmaceutical CO., LTD., priority 2015, dated 2019).

How the values were obtained:
[1] = system: acetylated Ac-α-tubulin in A2780s cells; experiment: Induction of α-tubulin acetylation in A2780s cells (cytoblot); format: cell-based; settings: Homo sapiens, 6 h treatment, read-out: Ac-Tub EC50
Experimental: (§1) Specific operation: After the treatment, washing each well once with 50-100 μl of cold TBS buffer [with the composition as 20 mM Tris (trismetyl aminomethane), pH7.5] and fixing it with 100 μL of 4% pre-cooled paraformaldehyde at 4° C. for 1 h; after paraformaldehyde is washed off, adding 50 μL of pre-cooled methyl alcohol in each well and evenly spreading at 4° C. for 5 min; after methyl alcohol is washed off, washing it once with the TBS buffer containing 3% skim milk powder and adding 50 μL of antibody fluid, oscillating it slightly at 4° C. and incubating overnight. For determination of Ac—H3, the antibody fluid is prepared by diluting Ac—H3 antibody and horseradish peroxide coupled secondary antibody to a same system with the TBS buffer containing 3% skim milk powder (Ac—H3 antibody is purchased from Santa Cruz Company and diluted at a ratio of 1:100; horseradish peroxide coupled secondary antibody is purchased from Jackson Company and diluted at a ratio of 1:2000); for determination of acetylated Ac-α-tubulin, the antibody fluid is prepared by diluting Ac-α-tubulin antibody and horseradish peroxide coupled secondary antibody to a same system with the TBS buffer containing 3% skim milk powder (Ac-α-tubulin antibody is purchased from Santa Cruz Company and diluted at a ratio of 1:100; horseradish peroxide coupled secondary antibody is purchased from Jackson Company and diluted at a ratio of 1:2000).
(§2) Calculating the value of IC50 as per the formula: Y=background data+(top data−background data)/(1+10^((Log EC50−X)*rate of curve)) Where, Y refers to the activating rate (%) and X refers to the compound concentration.

[2] = system: acetylated histone H3 (Ac-H3) in A2780s cells; experiment: Induction of histone H3 acetylation in A2780s cells (cytoblot); format: cell-based; settings: Homo sapiens, 6 h treatment
Experimental: as §1, §2

HDAC5 = biological target: T1, HDAC5 (Homo sapiens, UniProt Q9UQL6); experiment: HDAC5 enzyme inhibition (Lys-Ac-AMC); format: biochemical; settings: Table 4, graded
T1 construct: purchased BPS Bioscience 50005
Experimental: (§3) Determining the inhibition capability of HDAC through the substrate method of fluorophore coupled acetylized peptide fragment (Lys-Ac-AMC). HDAC2-11 proteins of subtypes are purchased from BPS Bioscience Company with the Art. […] The reaction buffer system is a modified Tris buffer (pH7.0). The small molecule compounds are prepared and dissolved with 100% DMSO. […] Adding the compound into the reaction wells of the 384 well plate at the designed concentration, then adding 15 μL HDAC enzyme solution into the reaction wells (adding 15 μL blank buffer into the control well 0) for incubation under ambient temperature for 15 min; then adding 10 μL substrate solution to start reaction.
(§4) Analyzing the result data with the software GraphPad Prism and calculating the value of IC50 as per the formula: Y=background data+(top data−background data)/(1+10^((Log IC50−X)*rate of curve)). Where, Y refers to the inhibition ratio (%) and X refers to the compound concentration.

HDAC6 = biological target: T2, HDAC6 (Homo sapiens, UniProt Q9UBN7); experiment: HDAC6 enzyme inhibition (Lys-Ac-AMC); format: biochemical; settings: Table 4, graded
T2 construct: purchased BPS Bioscience 50006
T2 sequence (Q9UBN7 1-1215): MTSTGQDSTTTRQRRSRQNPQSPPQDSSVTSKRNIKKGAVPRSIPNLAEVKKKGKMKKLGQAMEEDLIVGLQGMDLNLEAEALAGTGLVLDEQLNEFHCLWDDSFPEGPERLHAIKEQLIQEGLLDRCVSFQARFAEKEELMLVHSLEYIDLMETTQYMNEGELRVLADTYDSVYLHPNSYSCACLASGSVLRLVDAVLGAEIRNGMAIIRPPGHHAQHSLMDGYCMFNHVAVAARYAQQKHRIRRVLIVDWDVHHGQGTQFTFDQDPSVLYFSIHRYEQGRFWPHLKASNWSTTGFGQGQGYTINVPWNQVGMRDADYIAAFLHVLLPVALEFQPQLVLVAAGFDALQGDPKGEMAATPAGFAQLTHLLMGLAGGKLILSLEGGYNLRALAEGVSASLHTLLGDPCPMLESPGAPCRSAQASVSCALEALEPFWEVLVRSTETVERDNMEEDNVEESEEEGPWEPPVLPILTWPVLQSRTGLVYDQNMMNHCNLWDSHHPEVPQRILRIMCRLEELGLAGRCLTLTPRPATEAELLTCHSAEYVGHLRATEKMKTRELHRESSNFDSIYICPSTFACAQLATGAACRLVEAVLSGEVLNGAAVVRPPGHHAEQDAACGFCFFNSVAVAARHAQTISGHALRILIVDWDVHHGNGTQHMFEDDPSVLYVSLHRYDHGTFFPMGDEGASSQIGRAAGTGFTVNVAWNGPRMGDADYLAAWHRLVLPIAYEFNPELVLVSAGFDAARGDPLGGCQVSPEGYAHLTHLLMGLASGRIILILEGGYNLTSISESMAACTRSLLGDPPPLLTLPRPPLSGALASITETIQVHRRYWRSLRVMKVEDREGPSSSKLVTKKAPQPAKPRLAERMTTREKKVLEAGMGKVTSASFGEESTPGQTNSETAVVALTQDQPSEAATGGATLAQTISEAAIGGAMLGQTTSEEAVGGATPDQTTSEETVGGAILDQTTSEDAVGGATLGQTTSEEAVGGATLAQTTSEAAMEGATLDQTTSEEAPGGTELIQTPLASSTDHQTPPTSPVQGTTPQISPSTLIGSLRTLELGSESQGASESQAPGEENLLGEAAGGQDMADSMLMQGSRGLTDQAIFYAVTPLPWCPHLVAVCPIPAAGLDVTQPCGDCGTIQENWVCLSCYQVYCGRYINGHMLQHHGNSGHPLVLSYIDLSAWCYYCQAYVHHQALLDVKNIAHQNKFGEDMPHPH
Experimental: as §3, §4

HDAC11 = biological target: T3, HDAC11 (Homo sapiens, UniProt Q96DB2); experiment: HDAC11 enzyme inhibition (Lys-Ac-AMC); format: biochemical; settings: Table 4, graded
T3 construct: purchased BPS Bioscience 50011
T3 sequence (Q96DB2 1-347): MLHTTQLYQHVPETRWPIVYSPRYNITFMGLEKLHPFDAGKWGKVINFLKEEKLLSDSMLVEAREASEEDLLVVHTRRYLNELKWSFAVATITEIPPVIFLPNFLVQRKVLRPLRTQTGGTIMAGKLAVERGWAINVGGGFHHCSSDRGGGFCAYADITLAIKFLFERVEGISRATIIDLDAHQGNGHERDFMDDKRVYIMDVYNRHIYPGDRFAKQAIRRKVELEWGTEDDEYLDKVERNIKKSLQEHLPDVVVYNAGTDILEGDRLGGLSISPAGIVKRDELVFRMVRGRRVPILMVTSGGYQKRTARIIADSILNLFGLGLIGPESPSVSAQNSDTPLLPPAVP
Experimental: as §3, §4

[3] = system: SUDHL-4 cells (B-cell lymphoma); experiment: Proliferation inhibition, SUDHL-4 (cck-8); format: cell-based; settings: Homo sapiens, SU-DHL-4; 96 h incubation
Source text: Calculating the value of IC50 as per the formula: Y=background data+(top data−background data)/(1+10^((Log IC50−X)*rate of curve)). Where, Y refers to the inhibition ratio (%) and X refers to the compound concentration.

T1 sequence (Q9UQL6 656-1122 limits assumed): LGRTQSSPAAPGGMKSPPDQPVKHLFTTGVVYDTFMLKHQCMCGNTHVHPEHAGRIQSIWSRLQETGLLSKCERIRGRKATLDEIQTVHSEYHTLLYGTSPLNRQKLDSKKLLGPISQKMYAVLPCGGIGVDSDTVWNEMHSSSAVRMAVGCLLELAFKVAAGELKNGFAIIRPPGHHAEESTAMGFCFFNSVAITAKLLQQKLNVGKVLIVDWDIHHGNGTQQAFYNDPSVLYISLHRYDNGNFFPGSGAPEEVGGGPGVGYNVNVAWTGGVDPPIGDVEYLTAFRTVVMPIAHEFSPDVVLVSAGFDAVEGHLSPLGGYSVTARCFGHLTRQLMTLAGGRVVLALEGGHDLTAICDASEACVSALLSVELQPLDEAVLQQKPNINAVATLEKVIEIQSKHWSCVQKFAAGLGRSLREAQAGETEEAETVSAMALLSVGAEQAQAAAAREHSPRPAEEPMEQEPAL

Compound | EC50 [1] [nM] | EC50 [2] [nM] | IC50 (HDAC5) [nM] | IC50 (HDAC6) [nM] | IC50 (HDAC11) [nM] | IC50 [3] [nM]
COc1ccc(-c2nc(N3CCOCC3)c3nc(CN(C)c4ncc(C(=O)NO)cn4)n(C)c3n2)cn1 [CLJ-1, 2-(((2-(6-methoxypyridine-3-yl)-9-methyl-6-morpholine-9H-purine-8-yl))methyl(methyl)amino)-N-hydroxyl pyrimidine-5-formamide] | 100 to 200 | 100 to 200 | 1000 to 10000 | 1 to 100 | 1000 to 10000 | 1 to 10
CN(Cc1nc2c(N3CCOCC3)nc(-c3cnc(N)nc3)nc2n1C)c1ncc(C(=O)NO)cn1 [CLJ-11, 2-(((2-(2-aminopyrimidine-5-yl)-9-methyl-6-morpholine-9H-purine-8-yl))methyl(methyl)amino)-N-hydroxyl pyrimidine-5-formamide] | 100 to 200 | 100 to 200 | 100 to 1000 | 1 to 100 | 1000 to 10000 | 10 to 100
COc1ccc(-c2nc(N3CCOCC3)c3nc(CN(C)c4ncc(C(=O)NO)cn4)n(C)c3n2)cc1 [CLJ-29, 2-(((2-(4-methoxyphenyl)-9-methyl-6-morpholine-9H-purine-8-yl))methyl(methyl)amino)-N-hydroxyl pyrimidine-5-formamide] | > 200 | < 100 | 1000 to 10000 | 1 to 100 | 1000 to 10000 | 0.1 to 1
CN(Cc1nc2c(N3CCOCC3)nc(-c3ccc(N)cc3)nc2n1C)c1ncc(C(=O)NO)cn1 [CLJ-44] | > 200 | 100 to 200 | 100 to 1000 | 1 to 100 | 1000 to 10000 | 1 to 10
Cc1[nH]c2ccccc2c1CCNCc1ccc(/C=C/C(=O)NO)cc1 [LBH589, panobinostat, reference compound] | 100 to 200 | 100 to 200 |  |  |  | 1 to 10
